Assay results as given in US12201593B2, “Oral pharmaceutical formulations of bitter compounds for asthma” (Aardvark Therapeutics Inc., priority 2018, dated 2025).

Key:
[1] = system: primary human smooth muscle (HASM) cells; test: FLECS bronchodilator assay: single-cell contractility of HASM cells after bradykinin/carbachol-induced contraction; format: cell-based; conditions: for relaxation of stimulated cells: HASM from asthmatic and non-asthmatic humans, stimulated to contract with bradykinin; for effect on contraction relative to control (FIG. 2): test agent 100 μM alone, stimulating agents BK and carbachol (10 μM), negative control 0.1% DMSO
Source text: FIGS. 1A, 1B, and 1C show the bronchodilator assay workflow with a […] of FLECS. Each well holds ˜1,200 micro-patterns for sensing force-generation by single cells. […] The two cases represent the positive and negative controls for the assay.
An in vitro model using human airway smooth muscle cells (HASM) from both asthmatic patients and “normal” non-asthmatic humans was stimulated to contract with bradykinin.
The assay investigated bronchodilatation properties of bitter taste agonists, individually and in combination, administered to primary human smooth muscle (HASM) cells after inducing contraction with asthmatic agent bradykinin. HASM cells were obtained from asthmatic patients and “normal” or non-asthmatic patients. Each of 4 primary HASM cell lines (2 from healthy donors; 2 from asthmatic donors) were seeded on FLECSplates and were stimulated to contract via exposure to bradykinin (BK) or carbachol. […] Accordingly, at 15 minutes following exposure to BK, the cells were treated with a denatonium salt or 3-CQL for Example 1, or combinations thereof, as well as positive controls and negative controls. The cells were imaged at 5 minute intervals beginning with a baseline reading, out to 45 minutes. The measurement was attenuation of population wide BK-induced contractility by treatment of a test compound (or combination) relative to controls.
Each well holds ˜1,200 micro-patterns for sensing force-generation by single cells. […] The two cases represent the positive and negative controls for the assay.

TAS2R subtypes = conditions: cited from earlier work

| Structure (SMILES) | relaxation of stimulated cells [1] | effect on contraction relative to control (FIG. 2) [1] | number of TAS2R subtypes activated (TAS2R subtypes) | potency of formoterol alone (FIG. 2) ([1]; formoterol 1 μM, concentration reduced 50×) |
| --- | --- | --- | --- | --- |
| O=C(/C=C/c1ccc(O)c(O)c1)O[C@@H]1C[C@](O)(C(=O)O)C[C@@H](O)[C@H]1O [3-CQL, 3-caffeoylquinic acid] | did not relax | increase contraction relative to control | – | – |
| CC[N+](CC)(CC(=O)Nc1c(C)cccc1C)Cc1ccccc1 [DB, phenylmethyl-[2-[(2,6-dimethylphenyl)amino]-2-oxoethyl]-diethylammonium benzoate] | – | relaxing effect | 8 | – |
| CC[N+](CC)(CC(=O)Nc1c(C)cccc1C)Cc1ccccc1 [DS, denatonium saccharide] | did relax | – | – | – |
| COc1ccc(CC(C)NCC(O)c2ccc(O)c(NC=O)c2)cc1 (stereo not drawn) [formoterol, Formoterol] | – | – | – | not as potent as previous experiments |
